From patent US20220251084A1, “PROGRANULIN MODULATORS AND METHODS OF USING THE SAME” (ARKUDA THERAPEUTICS, priority 2019, published 2022)

system: progranulin (PGRN) secretion, BV-2 cells; assay: PGRN assay: progranulin induction cellular assay (ELISA of secreted mouse PGRN); type: cell-based; details: not given
Experimental: Cellular Assays: To measure the efficacy of compounds, a progranulin induction cellular assay in mouse primary microglia (pMG), primary cortical neurons, and BV-2 cell lines is used. BV-2 cells are split the day before plating into a 96 well plate format at approximately 80%. Cells should be plated the day before and allowed for 1 hour attachment period and for 16 hour incubation. […] Standard ELISA kits to measure PGRN are available from vendors such as Adipogen, R&D, and Biovendor.

Row | SMILES | EC50
1 | Fc1ccc(C2c3ccccc3CCN2C(C[C@@H]2CN3CCC2CC3)C(F)(F)F)cc1 (stereo partly drawn) [Compound 2133] | 9.76 µM
2 | O=C(O[C@@H]1CN2CCC1CC2)N1CCc2cccnc2[C@H]1c1ccc(F)cc1 [Compound 2055, (S)-quinuclidin-3-yl 8-(4-fluorophenyl)-5,6-dihydro-1,7-naphthyridine-7(8H)-carboxylate] | 3.3 µM
3 | O=C(O[C@@H]1CN2CCC1(F)CC2)N1CCc2ccccc2[C@@H]1c1ccc(F)cc1 (single isomer, unassigned) [Compound 2126] | 1.25 µM

same assay, conditions: Mus musculus, BV-2

Row | SMILES | EC50
4 | O=C(O[C@@H]1CN2CCC1CC2)N1CCc2ccccc2[C@H]1c1ccc2[nH]c(=O)sc2c1 [Compound 2012] | > 10 µM
5 | CS(=O)(=O)c1ccc2c(c1)CCN(C(=O)O[C@@H]1CN3CCC1CC3)[C@H]2c1ccc(F)cc1 [Compound 2025] | > 10 µM
6 | CNC(=O)c1ccc2c(c1)CCN(C(=O)O[C@@H]1CN3CCC1CC3)[C@@H]2c1ccc(F)cc1 [Compound 2101] | > 10 µM

same assay, conditions: Mus musculus, BV-2, PGRN assay, Table C; secreted mouse PGRN in cell culture medium, ELISA

Row | SMILES | EC50
7 | C#CCOc1ccc2c(c1)[C@H](c1ccc(F)cc1)N(C(=O)NCC13CCN(CC1)CC3)CC2 [Compound 2192, (S)-1-(4-fluorophenyl)-7-(prop-2-yn-1-yloxy)-N-(quinuclidin-4-ylmethyl)-3,4-dihydroisoquinoline-2(1H)-carboxamide] | > 10 µM
8 | CN1C2CCC1CC(OC(=O)N1CCc3ccccc3[C@@H]1c1ccc(F)cc1)C2 (stereo partly drawn) [Compound 2007] | 1.19 µM
9 | O=C(OCC12CCN(CC1)CC2)N1CCc2ccccc2[C@@H]1c1cccc(F)c1F [Compound 2112] | 8.27 µM
10 | CS(=O)(=O)c1ccc2c(c1)[C@@H](c1ccc(F)cc1)N(C(=O)N[C@@H]1CN3CCC1CC3)CC2 [Compound 2057] | > 10 µM
11 | CNC(=O)c1ccc2c(c1)CCN(C(=O)OCC13CCN(CC1)CC3)[C@@H]2c1ccc(F)cc1 [Compound 2081] | > 10 µM
12 | O=C1C[C@H](COC(=O)N2CCc3ccccc3[C@@H]2c2ccc(F)cc2)CCN1 (single isomer, unassigned) [Compound 2185, (1 S)-(2-oxopiperidin-4-yl)methyl 1-(4-fluorophenyl)-3,4-dihydroisoquinoline-2(1H)-carboxylate] | > 10 µM
13 | CN1CCC(F)(COC(=O)N2CCc3ccccc3[C@@H]2c2ccc(F)cc2)CC1 [Compound 2114] | 0.401 µM
14 | CN1CCC2(CC1)CCN(C(=O)N1CCc3ccccc3[C@@H]1c1ccc(F)cc1)C2 [Compound 2121] | > 10 µM
15 | O=C(OCCC12CCN(CC1)CC2)N1CCc2ccccc2[C@@H]1c1ccc(F)cc1 [Compound 2130, 2-(quinuclidin-4-yl)ethyl (S)-1-(4-fluorophenyl)-3,4-dihydroisoquinoline-2(1H)-carboxylate] | > 3.16 µM
16 | CS(=O)(=O)c1ccc2c(c1)CCN(C(=O)N[C@@H]1CN3CCC1CC3)[C@H]2c1ccc(F)cc1 [Compound 2040, 1-(4-fluorophenyl)-6-(methylsulfonyl)-N—((S)-quinuclidin-3-yl)-3,4-dihydroisoquinoline-2(1H)-carboxamide] | > 10 µM
17 | C#CCOc1ccc2c(c1)[C@H](c1ccc(F)cc1)N(C(=O)N[C@@H]1CN3CCC1CC3)CC2 [Compound 2115, (S)-1-(4-fluorophenyl)-7-(prop-2-yn-1-yloxy)-N—((S)-quinuclidin-3-yl)-3,4-dihydroisoquinoline-2(1H)-carboxamide] | 8.37 µM
18 | C#CCN1CCC(OC(=O)N2CCc3ccccc3[C@@H]2c2ccc(F)cc2)CC1 [Compound 2195, 1-(prop-2-yn-1-yl)piperidin-4-yl (S)-1-(4-fluorophenyl)-3,4-dihydroisoquinoline-2(1H)-carboxylate] | 1.7 µM
19 | O=C(OCC12CCN(CC1)CC2)N1CCc2ccccc2[C@@H]1c1ccc(OCc2ncccn2)cc1 [Compound 2155] | > 10 µM
20 | CN1CCC(COC(=O)N2CCc3ccccc3[C@@H]2c2cc(F)cc(F)c2)CC1 [Compound 2108] | > 3.16 µM
21 | C#CCOc1ccc2c(c1)CCN(C(=O)NCC13CCN(CC1)CC3)[C@@H]2c1ccc(F)cc1 [Compound 2085] | 4.99 µM
22 | O=C(N1CCc2ccccc2[C@@H]1c1ccc(F)cc1)C(F)(F)C1(O)CN2CCC1CC2 (stereo partly drawn) [Compound 2198, 2,2-difluoro-1-((S)-1-(4-fluorophenyl)-3,4-dihydroisoquinolin-2(1H)-yl)-2-(3-hydroxyquinuclidin-3-yl)ethan-1-one] | > 10 µM
23 | CN1C[C@@H]2CC[C@H](OC(=O)N3CCc4ccccc4[C@@H]3c3ccc(F)cc3)[C@@H]2C1 (relative stereo) [Compound 2062, (1 S)-(rel-(3′aR,6′aS)-2′-methyloctahydrocyclopenta[c]pyrrol-4-yl)-1-(4-fluorophenyl)-3,4-dihydroisoquinoline-2(1H)-carboxylate] | 1.12 µM
24 | O=C(CO[C@@H]1CN2CCC1CC2)N1CCc2ccccc2[C@@H]1c1ccc(F)cc1 [Compound 2009] | 0.811 µM
25 | O=C(N[C@@H]1CCCNC1)N1CCc2ccccc2[C@@H]1c1ccc(F)cc1 [Compound 2172] | 0.43 µM
26 | CN1CCC(COC(=O)N2CCc3ccccc3[C@@H]2c2ccc(F)c(F)c2)CC1 [Compound 2138, (1-methylpiperidin-4-yl)methyl-1-(3,4-difluorophenyl)-3,4-dihydroisoquinoline-2(1H)-carboxylate] | 1.21 µM
27 | CN1CCC2(CC1)CC(OC(=O)N1CCc3ccccc3[C@@H]1c1ccc(F)cc1)C2 [Compound 2018] | 1.89 µM
28 | O=C([C@@H](O)CC12CCN(CC1)CC2)N1CCc2ccccc2[C@@H]1c1ccc(F)cc1 (single isomer, unassigned) [Compound 2153] | > 10 µM
29 | COC(=O)c1ccc2c(c1)CCN(C(=O)OCC13CCN(CC1)CC3)[C@@H]2c1ccc(F)cc1 [Compound 2073] | > 10 µM
30 | C#CCOc1ccc2c(c1)C(c1ccc(F)cc1)N(C(=O)OCC13CCN(CC1)CC3)CC2 (stereo in doubt) [Compound 2053, (S)-quinuclidin-4-ylmethyl 1-(4-fluorophenyl)-7-(prop-2-ynyloxy)-3,4-dihydroisoquinoline-2(1H)-carboxylate] | 5.74 µM
31 | CNC(=O)c1ccc2c(c1)[C@H](c1ccc(F)cc1)N(C(=O)N[C@@H]1CN3CCC1CC3)CC2 [Compound 2118, (S)-1-(4-fluorophenyl)-N7-methyl-N2-((S)-quinuclidin-3-yl)-3,4-dihydroisoquinoline-2,7(1H)-dicarboxamide] | > 10 µM
32 | O=C(N[C@@H]1CN2CCC1CC2)C(=O)N1CCc2ccccc2[C@@H]1c1ccc(F)cc1 [Compound 2104] | 1.61 µM
33 | O=C(C[C@@H]1CCCNC1)N1CCc2ccccc2[C@@H]1c1ccc(F)cc1 [Compound 2188] | 3.21 µM
34 | N#Cc1ccc2c(c1)[C@H](c1ccc(F)cc1)N(C(=O)N[C@@H]1CN3CCC1CC3)CC2 [Compound 2038, 7-cyano-1-(4-fluorophenyl)-N—((S)-quinuclidin-3-yl)-3,4-dihydroisoquinoline-2(1H)-carboxamide] | > 10 µM

same assay, conditions: Mus musculus, BV-2, PGRN assay, Table D; secreted mouse PGRN in cell culture medium, ELISA

Row | SMILES | EC50
35 | CN1CC[C@H](NC(=O)N2CCc3ccccc3[C@@H]2c2ccc(F)cc2)C1 [Compound 2237, (S)-1-(4-fluorophenyl)-N—((S)-1-methylpyrrolidin-3-yl)-3,4-dihydroisoquinoline-2(1H)-carboxamide] | 0.43 µM
36 | O=C(OCC1CNC1)N1CCc2ccccc2[C@@H]1c1ccc(F)cc1 [Compound 2246, Azetidin-3-ylmethyl (S)-1-(4-fluorophenyl)-3,4-dihydroisoquinoline-2(1H)-carboxylate 2,2,2-trifluoroacetate] | 0.77 µM
37 | O=C(N1CCCNCC1)N1CCc2ccccc2[C@@H]1c1ccc(F)cc1 [Compound 2264, (S)-(1,4-diazepan-1-yl)(1-(4-fluorophenyl)-3,4-dihydroisoquinolin-2(1H)-yl)methanone] | 1.06 µM
38 | O=C(N[C@H]1CNCC1(F)F)N1CCc2ccccc2[C@@H]1c1ccc(F)cc1 (stereo in doubt) [Compound 2243, (1 S)—N-(4,4-difluoropyrrolidin-3-yl)-1-(4-fluorophenyl)-3,4-dihydroisoquinoline-2(1H)-carboxamide] | 0.36 µM
39 | CN1[C@@H]2CC[C@H]1[C@H](NC(=O)N1CCc3ccccc3[C@@H]1c1ccc(F)cc1)C2 [Compound 2227] | 4.15 µM
40 | O=C(O[C@H]1CNC[C@H]1F)N1CCc2ccccc2[C@@H]1c1ccc(F)cc1 [Compound 2362] | > 3.16 µM
41 | NC[C@H]1CCN(C(=O)N2CCc3ccccc3[C@@H]2c2ccc(F)cc2)C1 [Compound 2288] | 0.248 µM
42 | CN1CCC(NC(=O)N2CCc3ccccc3[C@@H]2c2ccc(F)cc2)CC1 [Compound 2238, (S)-1-(4-fluorophenyl)-N-(1-methylpiperidin-4-yl)-3,4-dihydroisoquinoline-2(1H)-carboxamide] | 0.72 µM
43 | O=C(OC[C@@H]1CCNC1)N1CCc2ccccc2[C@@H]1c1ccc(F)cc1 [Compound 2230] | 1.07 µM
44 | CN1CC[C@H](O)[C@@H](O)[C@@H]1COC(=O)N1CCc2ccccc2[C@@H]1c1ccc(F)cc1 (single isomer, unassigned) [Compound 2304] | 2.33 µM
45 | O=C(N[C@@H]1CNCCOC1)N1CCc2ccccc2[C@@H]1c1ccc(F)cc1 (single isomer, unassigned) [Compound 2277] | 1.06 µM
46 | O=C(N1CC[C@]2(CNCCO2)C1)N1CCc2ccccc2[C@@H]1c1ccc(F)cc1 (single isomer, unassigned) [Compound 2326] | 0.189 µM

same assay, conditions: PGRN assay, Table C; secreted mouse PGRN in cell culture medium, ELISA

Row | SMILES | EC50
47 | O=C(OC1[C@@H]2CC3C[C@@H]1CN(C3)C2)N1CCc2ccccc2[C@@H]1c1ccc(F)cc1 (stereo partly drawn) [Compound 2097] | 2.82 µM

same assay, conditions: PGRN assay, Table D; secreted mouse PGRN in cell culture medium, ELISA

Row | SMILES | EC50
48 | O=C(N[C@H]1CNCCOC1)N1CCc2ccccc2[C@@H]1c1ccc(F)cc1 (single isomer, unassigned) [Compound 2276] | 1.05 µM
